Tested on: Myzus Persicae (Green Peach Aphid)
Assay: Example B1: Myzus persicae mixed population, feeding/residual contact activity, preventive (sunflower leaf discs)
Format: in vivo
Settings: foliar, 144 h, A: neonicotinoid insecticides susceptible Myzus persicae (mixed age population), 6 DAT, read-out: Mortality (A)
Description: Myzus Persicae (Green Peach Aphid): Mixed Population, Feeding/Residual Contact Activity, Preventive
Sunflower leaf discs are placed on agar in a 24-well microtiter plate and sprayed with test solutions. After drying, the leaf discs are infested with an aphid population of mixed ages. After an incubation period of 6 DAT, samples are checked for mortality.

SMILES	mortality at 200 ppm [%]
CCOC(=O)OC1=C(c2c(C)cc(C)cc2C)C(=O)N(C)C12CCN(OC)CC2 [P1.2, Carbonic acid ethyl ester 8-methoxy-1-methyl-2-oxo-3-(2,4,6-trimethyl-phenyl)-1,8-diaza-spiro[4.5]dec-3-en-4-yl ester]	95

Same assay, conditions: foliar, 144 h, B: neonicotinoid insecticides resistant Myzus persicae (mixed age population), 6 DAT, read-out: Mortality (B)

SMILES	mortality at 200 ppm [%]
CCOC(=O)OC1=C(c2c(C)cc(C)cc2C)C(=O)N(C)C12CCN(OC)CC2 [P1.2, Carbonic acid ethyl ester 8-methoxy-1-methyl-2-oxo-3-(2,4,6-trimethyl-phenyl)-1,8-diaza-spiro[4.5]dec-3-en-4-yl ester]	90

Tested on: IND3 strain of Nilaparvata lugens (Neonicotinoid resistant)
Assay: Example B2b: Nilaparvata lugens larvicide, feeding/contact activity, preventive (rice seedlings), resistant strain
Format: in vivo
Settings: Lowest concentration giving greater than 80% mortality of resistant (IND3) hoppers / same for susceptible hoppers; Nilaparvata lugens N3 nymphs on rice seedlings, 6 and 12 days after treatment
Excerpt: (§1) The level of resistance and therefore the impact on the performance of the insecticide can be measured by the use of a ‘Resistance Factor’. The resistance factor can be calculated by dividing the concentration of an insecticide that provides a set level of mortality (i.e. 80%) for the ‘resistant’ strain with the concentration of the same insecticide that provides the same level of mortality for the ‘susceptible’ insect of the same species and life-stage. Although there are no set rules, a low value (1-10) indicates no cross-resistance and only natural levels of variation and a high value (50+) provides strong evidence of cross-resistance.
b) Neonicotinoid Resistant Strain of the Brown Planthopper (Nilaparvata lugens)
Nilaparvata lugens strains utilised: • Standard screening strain of Nilaparvata lugens (Neonicotinoid susceptible) • IND3 strain of Nilaparvata lugens (Neonicotinoid resistant) Bioassay Method:
Nilaparvata lugens: larvicide, feeding/contact activity, preventive
Rice seedlings are treated with the diluted test solutions in a turn table spray chamber. After drying, they are infested with 20 N3 nymphs. 6 and 12 days after the treatment samples are checked for mortality, growth regulation, and effects on the F1 generation.

SMILES	Resistance Factor (RF80)
CCOC(=O)OC1=C(c2c(C)cc(Cl)cc2C)C(=O)N(C)C12CCN(OC)CC2	4
CCOC(=O)OC1=C(c2c(C)cc(C)cc2C)C(=O)N(OCC)C12CCN(OC)CC2 [drawing 473]	<1
CN1COCN(Cc2cnc(Cl)s2)/C1=N\[N+](=O)[O-] [thiamethoxam, reference compound]	>64
CON1CCC2(CC1)C(=O)C(c1c(C)cc(C)cc1C)C(=O)N2C (stereo not shown)	1
CCOC(=O)OC1=C(c2c(C)cc(C)cc2C)C(=O)N(OC2CCCO2)C12CCN(OC)CC2 (stereo not shown)	1

Same assay, conditions: neonicotinoid resistant IND3 versus susceptible Nilaparvata lugens

SMILES	Resistance factor (RF)
CN1COCN(Cc2cnc(Cl)s2)/C1=N\[N+](=O)[O-] [thiamethoxam, reference compound]	high

Tested on: FRC-P strain of Myzus persicae (Neonicotinoid resistant)
Assay: Example B2a: Myzus persicae mixed population, contact activity, curative on pea seedlings, resistant strain
Format: in vivo
Settings: Lowest concentration giving greater than 80% mortality of resistant (FRC-P) aphids / same for susceptible aphids; Myzus persicae on pea seedlings, spray, 6 days after treatment
Excerpt: as §1
a) Neonicotinoid and Pyrethroid Resistant Strain of the Green Peach Aphid (Myzus persicae)
Myzus persicae strains utilised: • Standard screening strain of Myzus persicae (Neonicotinoid susceptible) • FRC-P strain of Myzus persicae (Neonicotinoid resistant) Bioassay Method:
Myzus persicae: mixed population, contact activity, curative on pea seedlings
Pea seedlings, infested with an aphid population of mixed ages, are treated with the test solutions in a spray chamber. 6 days after treatment, samples are checked for mortality.

SMILES	Resistance Factor (RF80)
CCOC(=O)OC1=C(c2c(C)cc(Cl)cc2C)C(=O)NC12CCN(OC)CC2	<1
CCOC(=O)OC1=C(c2c(C)cc(C)cc2C)C(=O)NC12CCN(OC)CC2	4
CCOC(=O)OC1=C(c2c(C)cc(C)cc2C)C(=O)N(C)C12CCN(OC)CC2 [drawing 471]	1
CON1CCC2(CC1)NC(=O)C(c1c(C)cc(C)cc1C)C2=O (stereo not shown)	4
CN1COCN(Cc2cnc(Cl)s2)/C1=N\[N+](=O)[O-] [thiamethoxam, reference compound]	>250
CCOC(=O)OC1=C(c2c(C)cc(C)cc2C)C(=O)N(OCC)C12CCN(OC)CC2 [drawing 468]	4
CON1CCC2(CC1)NC(=O)C(c1c(C)cc(Cl)cc1C)C2=O (stereo not shown)	1
CON1CCC2(CC1)C(=O)C(c1c(C)cc(C)cc1C)C(=O)N2OC1CCCO1 (stereo not shown)	<1

Same assay, conditions: neonicotinoid resistant FRC-P versus susceptible Myzus persicae; mortality 6 days after treatment

SMILES	Resistance factor (RF)
CN1COCN(Cc2cnc(Cl)s2)/C1=N\[N+](=O)[O-] [thiamethoxam, reference compound]	high

Tested on: not given
Assay: not given
Settings: not given

melting point	SMILES
93 to 95 °C	COCON1C(=O)C(c2cc(C)ccc2C)=C(OC(=O)CC(C)(C)C)C12CCN(OC)CC2 [P1ii.5]
161 to 164 °C	COCCON1C(=O)C(c2c(C)cc(Cl)cc2C)=C(O)C12CCN(OC)CC2 [P2ii.101]
88 to 92 °C	CON1CCC2(CC1)C(O)=C(c1c(C)cc(Cl)cc1C)C(=O)N2OC [P2ii.102]
122 to 125 °C	CCOC(=O)OC1=C(c2c(C)cc(Cl)cc2C)C(=O)N(OC)C12CCN(OC)CC2 [P1ii.114]
218 to 221 °C	CCN1C(=O)C(c2c(C)cc(C)cc2C)=C(O)C12CCN(OC)CC2 [P2.11]
223 to 225 °C	CON1CCC2(CC1)C(O)=C(c1c(C)cc(C)cc1C)C(=O)N2CC1CC1 [P2.8, 1-Cyclopropylmethyl-4-hydroxy-8-methoxy-3-(2,4,6-trimethyl-phenyl)-1,8-diaza-spiro[4.5]dec-3-en-2-one]
63 to 64 °C	COCCON1C(=O)C(c2cc(Br)c(C)cc2C)=C(O)C12CCN(OC)CC2 [P2ii.73]
135 to 137 °C	CCOC(=O)OC1=C(c2c(Cl)ccc(C)c2F)C(=O)N(OC2CCCC2)C12CCN(OC)CC2 [P1ii.43]
191 to 192 °C	CON1CCC2(CC1)C(O)=C(c1cc(C)c(C)cc1Cl)C(=O)N2C [P2.26, 3-(2-Chloro-4,5-dimethyl-phenyl)-4-hydroxy-8-methoxy-1-methyl-1,8-diaza-spiro[4.5]dec-3-en-2-one]
182 to 183 °C	CON1CCC2(CC1)C(O)=C(c1cc(Br)c(C)cc1C)C(=O)N2C [P2.28]
64 to 67 °C	COCON1C(=O)C(c2cc(Br)c(F)cc2C)=C(O)C12CCN(OC)CC2 [P2ii.89]
91 to 93 °C	COCON1C(=O)C(c2cc(C)ccc2C)=C(OC)C12CCN(OC)CC2 [P1ii.31]
96 to 110 °C	CCOC(=O)OC1=C(c2cc(C)ccc2C)C(=O)N(C)C12CCN(OC)CC2 [P1.1]
183 to 186 °C	CON1CCC2(CC1)C(O)=C(c1cc(C)c(C)cc1C)C(=O)N2C [P2.25]
155 to 158 °C	COCON1C(=O)C(c2c(F)ccc(C)c2Cl)=C(O)C12CCN(OC)CC2 [P2ii.60]
158 to 159 °C	CCOC(=O)OC1=C(c2cc(C)c(C)cc2Br)C(=O)N(C)C12CCN(OC)CC2 [P1.20]
169 to 172 °C	CON1CCC2(CC1)C(O)=C(c1c(C)cc(C)cc1C)C(=O)N2OCC1CCCCC1 [P2ii.96]
128 °C (dec.)	COCON1C(=O)C(c2c(C)cc(-c3ccc(Cl)cc3)cc2C)=C(O)C12CCN(OC)CC2 [P2ii.15, 3-(4′-Chloro-3,5-dimethyl-biphenyl-4-yl)-4-hydroxy-8-methoxy-1-methoxymethoxy-1,8-diaza-spiro[4.5]dec-3-en-2-one]
176 to 178 °C	COCON1C(=O)C(c2c(C)cc(Cl)cc2C)=C(O)C12CCN(OC)CC2 [P2ii.104]
86 to 87 °C	CON1CCC2(CC1)C(O)=C(c1cc(Br)c(C)cc1C)C(=O)N2OC [P2ii.75]
101 to 103 °C	CCOC(=O)OC1=C(c2c(C)cc(C)cc2C)C(=O)N(CC)C12CCN(OC)CC2 [P1.8]
116 to 119 °C	CCOC(=O)OC1=C(c2c(F)ccc(C)c2Cl)C(=O)N(OCOC)C12CCN(OC)CC2 [P1ii.61]
121 to 123 °C	CON1CCC2(CC1)C(O)=C(c1cc(C)ccc1C)C(=O)N2C [P2.1]
71 to 74 °C	COCCON1C(=O)C(c2cc(Br)c(F)cc2C)=C(O)C12CCN(OC)CC2 [P2ii.87]
137 to 139 °C	CON1CCC2(CC1)C(O)=C(c1c(C)cc(Cl)cc1C)C(=O)N2OC1CCCO1 (stereo not shown) [P2ii.105]
149 to 150 °C	CCOC(=O)OC1=C(c2cc(C)c(C)cc2Cl)C(=O)N(C)C12CCN(OC)CC2 [P1.22]
191 to 193 °C	CON1CCC2(CC1)C(O)=C(c1cc(C)c(C)cc1Br)C(=O)N2C [P2.23]
135 to 137 °C	CON1CCC2(CC1)C(O)=C(c1c(C)cc(C)cc1C)C(=O)N2OCCOC1CCCCO1 (stereo not shown) [P2ii.22]

Tested on: ALM07 strain (Neonicotinoid and pyrethroid resistant) of the Tobacco Whitefly (Bemisia tabaci)
Assay: Example B2c: Bemisia tabaci residual activity, preventive egg lay (cotton seedlings), resistant strain
Format: in vivo
Settings: Concentration giving 50% control of resistant (ALM07) whitefly egg lay / same for susceptible whitefly; Bemisia tabaci on cotton seedlings, 3 days after exposure
Excerpt: as §1
c) Neonicotinoid and Pyrethroid Resistant Strain of the Tobacco Whitefly (Bemisia tabaci)
Bemisia tabaci strains utilised: • Standard screening strain of Bemisia tabaci (Neonicotinoid susceptible) • ALM07 strain of […] (Neonicotinoid and pyrethroid resistant) and originally provided by Rothamsted Research, UK. (>250 RF in residual mortality bioassay of adult whitefly with thiamethoxam). Bioassay Method: […]
Cotton seedlings, with all but a single leaf removed are treated with the diluted test solutions in a turn table spray chamber. […] 3 days after exposure, the total number of adult whitefly and the total number of whitefly eggs laid on the leaf are counted. Percentage control of egg lay is calculated and corrected for control mortality.

SMILES	Resistance Factor (RF50)
CCOC(=O)OC1=C(c2c(C)cc(C)cc2C)C(=O)N(C)C12CCN(OC)CC2 [drawing 476]	4

— patent publication US9485989B2, “Method of controlling neonicotinoid resistant hemiptera” (Syngenta Participations AG, priority 2010, dated 2016)
